In patent publication US8563714B2, “Bridged spiro [2.4] heptane derivatives as ALX receptor and/or FPRL2 agonists” (Actelion Pharmaceuticals Ltd., priority 2009, dated 2013):

Tests used:
human ALX receptor = target: T1, human ALX receptor (Homo sapiens, UniProt P25090); assay: Intracellular calcium measurements (FLIPR), agonistic activity in HEK293-hALXR-Gα16 cells; format: cell-based; conditions: Fluo-4 calcium FLIPR, normalized to WKYMVm 10 nM
T1 construct: expressed in transfected cells; host or cells: HEK293 (HEK293-hALXR-Gα16)
T1 sequence (P25090 1-351): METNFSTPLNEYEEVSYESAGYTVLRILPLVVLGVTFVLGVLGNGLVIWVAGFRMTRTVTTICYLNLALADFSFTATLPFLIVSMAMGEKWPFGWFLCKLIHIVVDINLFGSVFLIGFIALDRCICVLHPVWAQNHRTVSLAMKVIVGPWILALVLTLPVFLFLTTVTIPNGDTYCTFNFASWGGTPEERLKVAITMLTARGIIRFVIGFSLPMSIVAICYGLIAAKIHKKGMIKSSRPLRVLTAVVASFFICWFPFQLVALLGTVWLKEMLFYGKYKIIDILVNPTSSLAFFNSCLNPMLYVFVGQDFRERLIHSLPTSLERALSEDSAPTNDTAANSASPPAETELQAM
Outline: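 Agonist-induced calcium flux was recorded by FLIPR (488/540 nm) in HEK293-hALXR-Gα16 cells pre-loaded with Fluo-4 AM (1 μM, 60 min, 37°C). Peak signal above baseline, after subtracting buffer addition, was expressed relative to WKYMVm at 10 nM final.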

human FPRL2 = target: T2, human FPRL2 (Homo sapiens, UniProt P25089); assay: Intracellular calcium measurements (FLIPR), agonistic activity in HEK293-hFPRL2-Gα16 cells; format: cell-based; conditions: Fluo-4 calcium FLIPR, normalized to GLY14-Humanin 100 nM
T2 construct: expressed in transfected cells; host or cells: HEK293 (HEK293-hFPRL2-Gα16)
T2 sequence (P25089 1-353): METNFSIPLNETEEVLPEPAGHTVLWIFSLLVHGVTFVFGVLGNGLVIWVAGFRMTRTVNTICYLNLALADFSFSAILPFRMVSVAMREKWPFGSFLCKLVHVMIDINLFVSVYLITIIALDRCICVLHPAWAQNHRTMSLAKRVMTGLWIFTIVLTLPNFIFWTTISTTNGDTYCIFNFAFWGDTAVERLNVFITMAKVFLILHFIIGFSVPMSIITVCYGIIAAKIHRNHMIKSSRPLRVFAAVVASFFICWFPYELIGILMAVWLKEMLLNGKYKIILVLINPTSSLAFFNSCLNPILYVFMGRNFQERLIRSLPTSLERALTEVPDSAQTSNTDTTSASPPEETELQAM
Outline: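 Peak values after baseline subtraction are expressed relative to 100 nM Gly14-Humanin; compounds diluted in assay buffer from 10 mM DMSO stocks.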

Structure (SMILES)	EC50 (human ALX receptor)	EC50 (human FPRL2)
CCOc1ccc(CNC(=O)C2C(C(=O)NCCCCN3CCCC3)C3C=CC2C32CC2)cc1 (stereo not drawn) [Example 386, (5R*)—N^5-(4-Ethoxyphenyl-methyl)-(6R*)—N^6-(4-pyrrolidino-butyl)-(4S*,7R*)-[4,7-ethenylene-spiro[2.4]heptane]-5,6-dicarboxamide]	2910 nM	254 nM
O=C(NCCCCN1CCCC1)[C@H]1[C@H](C(=O)NCCc2ccc(Cl)cc2)[C@@H]2C=C[C@H]1C21CC1 [Example 387, (5R)—N^5-(2-(4-Chlorophenyl)ethyl)-(6R)—N^6-(4-pyrrolidino-butyl)-(4S,7R)-[4,7-ethenylene-spiro[2.4]heptane]-5,6-dicarboxamide]	8270 nM	26 nM
CN(C)CCNC(=O)[C@H]1[C@H](C(=O)NCCc2ccc(Cl)cc2)[C@@H]2C=C[C@H]1C21CC1 [Example 388, (5R)—N^5-(2-(4-Chlorophenyl)ethyl)-(6R)—N^6-(2-dimethylamino-ethyl)-(4S,7R)-[4,7-ethenylene-spiro[2.4]heptane]-5,6-dicarboxamide]	> 25000 nM	623 nM
O=C(NCCc1ccccn1)[C@H]1[C@H](C(=O)NCCc2ccc(Cl)cc2)[C@@H]2C=C[C@H]1C21CC1 [Example 389, (5R)—N^5-(2-(4-Chlorophenyl)ethyl)-(6R)—N^6-(2-(pyridin-2-yl)ethyl)-(4S,7R)-[4,7-ethenylene-spiro[2.4]heptane]-5,6-dicarboxamide]	> 25000 nM	554 nM
NS(=O)(=O)c1ccc(CCNC(=O)[C@H]2[C@H](C(=O)NCCc3ccc(Cl)cc3)[C@@H]3C=C[C@H]2C32CC2)cc1 [Example 390, (5R)—N^5-(2-(4-Chlorophenyl)ethyl)-(6R)—N^6-(2-(4-aminosulfonyl-phenyl)-ethyl)-(4S,7R)-[4,7-ethenylene-spiro[2.4]heptane]-5,6-dicarboxamide]	> 25000 nM	576 nM
O=C(NCCCCN1CCCC1)[C@H]1[C@H](C(=O)NCCc2ccc(Cl)cc2Cl)[C@@H]2C=C[C@H]1C21CC1 [Example 391, (5R)—N^5-(2-(2,4-Dichlorophenyl)ethyl)-(6R)—N^6-(4-pyrrolidino-butyl)-(4S,7R)-[4,7-ethenylene-spiro[2.4]heptane]-5,6-dicarboxamide]	9710 nM	3.8 nM
CC(C)CCN1CCC(NC(=O)[C@H]2[C@H](C(=O)NCCc3ccc(Cl)cc3)[C@@H]3C=C[C@H]2C32CC2)CC1 [Example 392, (5R)—N^5-(2-(4-Chlorophenyl)ethyl)-(6R)—N^6—(N-isopentyl-piperidin-4-yl)-(4S,7R)-[4,7-ethenylene-spiro[2.4]heptane]-5,6-dicarboxamide]	10400 nM	20 nM
O=C(NCCCCN1CCCC1)[C@H]1[C@H](C(=O)Nc2cc(F)c(Br)c(F)c2)[C@@H]2C=C[C@H]1C21CC1 [Example 393, (5R)—N^5-(4-Bromo-3,5-difluorophenyl)-(6R)—N^6-(4-pyrrolidino-butyl)-(4S,7R)-[4,7-ethenylene-spiro[2.4]heptane]-5,6-dicarboxamide]	1190 nM	16 nM
O=C(NCCCCN1CCCC1)[C@H]1[C@H](C(=O)Nc2ccc(Br)c(C(F)(F)F)c2)[C@@H]2C=C[C@H]1C21CC1 [Example 395, (5R)—N^5-(4-Bromo-3-trifluoromethylphenyl)-(6R)—N^6-(4-pyrrolidino-butyl)-(4S,7R)-[4,7-ethenylene-spiro[2.4]heptane]-5,6-dicarboxamide]	3800 nM	13 nM
CC1CCC(C)N1CCCCNC(=O)[C@H]1[C@H](C(=O)Nc2ccc(Br)cc2)[C@@H]2C=C[C@H]1C21CC1 (stereo partly drawn) [Example 397, (5R)—N^5-(4-Bromophenyl)-(6R)—N^6-(4-(2,5-dimethylpyrrolidin-1-yl)butyl)-(4S,7R)-[4,7-ethenylene-spiro[2.4]heptane]-5,6-dicarboxamide]	2.1 nM	149 nM
CC(CCCNC(=O)[C@H]1[C@H](C(=O)Nc2ccc(Br)cc2)[C@@H]2C=C[C@H]1C21CC1)N1CCCC1 (stereo partly drawn) [Example 398, (5R)—N^5-(4-Bromophenyl)-(6R)—N^6-(4-(pyrrolidin-1-yl)pentyl)-(4S,7R)-[4,7-ethenylene-spiro[2.4]heptane]-5,6-dicarboxamide]	1.8 nM	7510 nM
O=C(NCCC(F)CN1CCCC1)[C@H]1[C@H](C(=O)Nc2ccc(Br)cc2)[C@@H]2C=C[C@H]1C21CC1 (stereo partly drawn) [Example 399, (5R)—N^5-(4-Bromophenyl)-(6R)—N^6-(3-fluoro-4-(pyrrolidin-1-yl)butyl)-(4S,7R)-[4,7-ethenylene-spiro[2.4]heptane]-5,6-dicarboxamide]	5 nM	4770 nM
COCC1CCCN1CCCCNC(=O)[C@H]1[C@H](C(=O)Nc2ccc(Br)cc2)[C@@H]2C=C[C@H]1C21CC1 (stereo partly drawn) [Example 400, (5R)—N^5-(4-Bromophenyl)-(6R)—N^6-(4-(2-(methoxymethyl)pyrrolidin-1-yl)butyl)-(4S,7R)-[4,7-ethenylene-spiro[2.4]heptane]-5,6-dicarboxamide]	1.4 nM	7650 nM
O=C(NCCCCN1CCC(F)(F)C1)[C@H]1[C@H](C(=O)Nc2ccc(Br)cc2)[C@@H]2C=C[C@H]1C21CC1 [Example 401, (5R)—N^5-(4-Bromophenyl)-(6R)—N^6-(4-(3,3-difluoropyrrolidin-1-yl)butyl)-(4S,7R)-[4,7-ethenylene-spiro[2.4]heptane]-5,6-dicarboxamide]	4.4 nM	516 nM

Second part, the molecule after the results:

EC50 (human ALX receptor)	EC50 (human FPRL2)	Structure (SMILES)
1550 nM	166 nM	O=C(NCCCCN1CCCC1)[C@H]1[C@H](C(=O)Nc2nc(Br)cs2)[C@@H]2C=C[C@H]1C21CC1 [Example 394, (5R)—N^5-(4-Bromo-thiazol-2-yl)-(6R)—N^6-(4-pyrrolidino-butyl)-(4S,7R)-[4,7-ethenylene-spiro[2.4]heptane]-5,6-dicarboxamide]
349 nM	66 nM	O=C(NCCCCN1CCCC1)[C@H]1[C@H](C(=O)Nc2cnc(Br)c(F)c2)[C@@H]2CC[C@H]1C21CC1 [Example 402, (5R)—N^5-(2-Bromo-3-fluoro-pyridin-5-yl)-(6R)—N^6-(4-pyrrolidino-butyl)-(4S,7R)-[4,7-ethylene-spiro[2.4]heptane]-5,6-dicarboxamide]
158 nM	21400 nM	O=C(NCCO)[C@H]1[C@H](C(=O)Nc2ncc(Br)s2)[C@@H]2CC[C@H]1C21CC1 [Example 403, (5R)—N^5-(5-Bromothiazol-2-yl)-(6R)—N^6-(2-hydroxyethyl)-(4S,7R)-[4,7-ethylene-spiro[2.4]heptane]-5,6-dicarboxamide]
96 nM	10000 nM	O=C(NCCCO)[C@H]1[C@H](C(=O)Nc2ncc(Br)s2)[C@@H]2CC[C@H]1C21CC1 [Example 404, (5R)—N^5-(5-Bromothiazol-2-yl)-(6R)—N^6-(3-hydroxypropyl)-(4S,7R)-[4,7-ethylene-spiro[2.4]heptane]-5,6-dicarboxamide]
80 nM	7840 nM	O=C(NCCCCO)[C@H]1[C@H](C(=O)Nc2ncc(Br)s2)[C@@H]2CC[C@H]1C21CC1 [Example 405, (5R)—N^5-(5-Bromothiazol-2-yl)-(6R)—N^6-(4-hydroxybutyl)-(4S,7R)-[4,7-ethylene-spiro[2.4]heptane]-5,6-dicarboxamide]
333 nM	15200 nM	CC(C)(CO)NC(=O)[C@H]1[C@H](C(=O)Nc2ncc(Br)s2)[C@@H]2CC[C@H]1C21CC1 [Example 406, (5R)—N^5-(5-Bromothiazol-2-yl)-(6R)—N^6-(2-methyl-3-hydroxyprop-2-yl)-(4S,7R)-[4,7-ethylene-spiro[2.4]heptane]-5,6-dicarboxamide]
11 nM	9230 nM	O=C(NCCOCCO)[C@H]1[C@H](C(=O)Nc2ncc(Br)s2)[C@@H]2CC[C@H]1C21CC1 [Example 407, (5R)—N^5-(5-Bromothiazol-2-yl)-(6R)—N^6-(2-(2-hydroxyethoxy)ethyl)-(4S,7R)-[4,7-ethylene-spiro[2.4]heptane]-5,6-dicarboxamide]
69 nM	16300 nM	O=C(N[C@H]1CC[C@H](O)CC1)[C@H]1[C@H](C(=O)Nc2ncc(Br)s2)[C@@H]2CC[C@H]1C21CC1 [Example 408, (5R)—N^5-(5-Bromothiazol-2-yl)-(6R)—N^6-(4-hydroxy-cyclohexyl)-(4S,7R)-[4,7-ethylene-spiro[2.4]heptane]-5,6-dicarboxamide]
129 nM	9190 nM	O=C(NCC1(O)CCCCC1)[C@H]1[C@H](C(=O)Nc2ncc(Br)s2)[C@@H]2CC[C@H]1C21CC1 [Example 409, (5R)—N^5-(5-Bromothiazol-2-yl)-(6R)—N^6-[(1-hydroxy-cyclohexyl)methyl]-(4S,7R)-[4,7-ethylene-spiro[2.4]heptane]-5,6-dicarboxamide]
